Test results published in US9856290B2, “Glycopeptide compositions and uses thereof” (SUSSEX RESEARCH LABORATORIES INC., priority 2013, dated 2018).
Marks after values point to notes of the source that are not given here. Primed or numbered codes have the meaning given here. The star is where a group is joined. Ac3‑α‑GalNAc = per-acetylated α-N-acetylgalactosamine (O-glycoside), CC(=O)N[C@@H]1[C@@H](OC(C)=O)[C@@H](OC(C)=O)[C@@H](COC(C)=O)O[C@@H]1*; Ac3‑β‑GlcNAc = per-acetylated β-N-acetylglucosamine, CC(=O)N[C@@H]1[C@@H](OC(C)=O)[C@H](OC(C)=O)[C@@H](COC(C)=O)O[C@H]1*; Ac4‑β‑Glc″ = peracetylated beta-glucose, CC(=O)OC[C@H]1O[C@@H](*)[C@H](OC(C)=O)[C@@H](OC(C)=O)[C@@H]1OC(C)=O; Ac4‑α‑Man = per-acetylated α-mannose, CC(=O)OC[C@H]1O[C@H](*)[C@@H](OC(C)=O)[C@@H](OC(C)=O)[C@@H]1OC(C)=O; αMan = OC[C@H]1O[C@H](*)[C@@H](O)[C@@H](O)[C@@H]1O; Palmitoyl = CCCCCCCCCCCCCCCC(=O)*

Assays:
[1] = test system: Human Dermal Fibroblasts (KMST-6); assay: ECM ELISA assay: elastin secretion by human dermal fibroblasts; type: cell-based; conditions: 5 μM, % compared to control set at 100%, normalized to total protein; for Elastin Secretion at 48 hours: KMST-6, 48 hours; for Elastin Secretion at 72 hours: KMST-6, 72 hours
Description: (§1) KMST-6 cells (Japan Health Sciences Foundation, JCRB0433) were seeded at 7,000 cells/ml in 12-well tissue culture treated plates (Falcon, 353043) in complete media. The complete media consisted of the following: MEM/EBSS (Hyclone, SH30024.01), 10% Heat-Inactivated FBS (Gibco, 10082-147), 1% L-Glutamine (Hyclone, SH30031.01), 1% Nucleosides (800 mg/L Adenosine, 850 mg/L Guanidine, 730 mg/L Cytidine, 730 mg/L Uridine and 240 mg/L Thymidine), 1% Penicillin/Streptomycin (HyClone, SV30010), 1% Sodium Pyruvate (HyClone, SH30239.01), 1% Non-Essential Amino Acids (Hyclone, SH30238.01) and 0.04% Gentamicin (Gibco, 15710-064). Cells were grown for 2 days prior to treatments. The media was aspirated and cells were washed with 1×PBS (Fisher, SH30256.01) and treated with 5 μM (1 mL/well) glycopeptides, reference (Pal-KTTKS, CPC Scientific, 822197), and control (DMSO, Fisher, BP231-100) in serum-free media supplemented with 50 μg/mL Sodium Ascorbate (Sigma, A4034) and 80 μg/mL β-Aminopropionate Fumarate (Sigma, A3134). The treated cells were incubated at 37° C. and 5% CO2 for 48 and 72 hours. At each timepoint, media from each treatment was collected and centrifuged at 1500 RPM for 15 minutes at 4° C. The supernatant was collected and stored at −80° C. for extracellular matrix protein quantification. The following kits were used for quantification of ECM proteins: Fibronectin (Takara, MK115) and Elastin (Uscn Life Science Inc., E91337Hu). The cells were harvest and lysed with 250 μL Lysis Buffer (20 mM Tris-HCl (Sigma, T1503), 137 mM NaCl (Sigma, S9888), 2 mM EDTA (Fisher, BP118), 1% IGEPAL (Sigma, 18896), 10% Glycerol (Sigma, G5516), 100 μM PMSF (Fisher, 36978) and 10 μg/mL Leupeptin (Sigma-Aldrich, L2884). They were placed on a container of ice on a plate shaker (Lab-Line Instruments, 3595) for 30 minutes. The lysate was centrifuged at 10,000 g for 5 minutes at 4° C. The supernatant was collected and used for protein quantification (BioRad, 500-0112).
(§2) To determine effects on extracellular matrix protein secretion, 5 μM of individual glycopeptides were incubated with Human Dermal Fibroblasts (KMST-6). The control sample cells were treated with DMSO (Fisher, BP231-100). As described previously, supernatant was collected from treated cells (at two time-points, 48 and 72 hours of treatment) and stored at −80° C. for subsequent extracellular matrix protein quantification using ELISA kits (Fibronectin (Takara, MK115), Elastin (Uscn Life Science Inc., E91337Hu). For the determination of total cellular protein, treated cells were harvested and lysed. The lysate was centrifuged, the supernatant was collected and then used for protein quantification (BioRad, 500-0112). ELISA plates were read on the plate reader (Molecular Devices) at absorbance of 450 nm and SoftMax Pro software was used to compute the μg/ml values of protein of interest derived from the generated 4-parameter fit standard curve. Each μg/ml of protein secreted was normalized to total protein per well. The data was analysed by averaging out normalized values from at least three independent experiments and presenting them as a % compared to control treatment set at 100% (Table 2-5). Statistical significance was performed using One-way ANOVA (p<0.05) where “*” represents statistical significance when compared to control and “#” represents statistical significance when compared to reference. […]

[2] = test system: Human Dermal Fibroblasts (KMST-6); assay: ECM ELISA assay: fibronectin secretion by human dermal fibroblasts; type: cell-based; conditions: 5 μM, % compared to control set at 100%, normalized to total protein; for Fibronectin secretion at 48 hours: KMST-6, 48 hours; for Fibronectin Secretion at 72 hours: KMST-6, 72 hours
Description: as §1, §2

Row | Substance | Elastin Secretion at 48 hours [1] | Elastin Secretion at 72 hours [1] | Fibronectin secretion at 48 hours [2] | Fibronectin Secretion at 72 hours [2]
1 | Pal-KT(Ac4-α-Man)TKS-OH (Palmitoyl-KT(Ac4‑α‑Man)TKS-OH; SMILES CCCCCCCCCCCCCCCC(=O)N[C@@H](CCCCN)C(=O)N[C@H](C(=O)N[C@H](C(=O)N[C@@H](CCCCN)C(=O)N[C@@H](CO)C(=O)O)[C@@H](C)O)[C@@H](C)O[C@H]1O[C@H](COC(C)=O)[C@@H](OC(C)=O)[C@H](OC(C)=O)[C@@H]1OC(C)=O; listed as Homo sapiens) [GP003-1] | 464.1* % | 413.6* % | 193.7* % | 125.3%
2 | Pal-KN(Ac4-β-Glc)TKS-OH (Palmitoyl-KN(Ac4‑β‑Glc″)TKS-OH; listed as Homo sapiens) [GP003-5] | 211.4% | 194.2% | 146.0% | 136.0%
3 | Pal-KT(Ac3-α-GalNAc)TKS-OH (Palmitoyl-KT(Ac3‑α‑GalNAc)TKS-OH; SMILES CCCCCCCCCCCCCCCC(=O)N[C@@H](CCCCN)C(=O)N[C@H](C(=O)N[C@H](C(=O)N[C@@H](CCCCN)C(=O)N[C@@H](CO)C(=O)O)[C@@H](C)O)[C@@H](C)O[C@H]1O[C@H](COC(C)=O)[C@H](OC(C)=O)[C@H](OC(C)=O)[C@H]1NC(C)=O; listed as Homo sapiens) [GP001-3] | 123.3% | 132.5% | 163.8* % | 117.4%
4 | Pal-KTT(Ac3-α-GalNAc)KS-OH (Palmitoyl-KTT(Ac3‑α‑GalNAc)KS-OH; SMILES CCCCCCCCCCCCCCCC(=O)N[C@@H](CCCCN)C(=O)N[C@H](C(=O)N[C@H](C(=O)N[C@@H](CCCCN)C(=O)N[C@@H](CO)C(=O)O)[C@@H](C)O[C@H]1O[C@H](COC(C)=O)[C@H](OC(C)=O)[C@H](OC(C)=O)[C@H]1NC(C)=O)[C@@H](C)O; listed as Homo sapiens) [GP001-9] | 103.7% | 104.3% | 123.4% | 104.8%
5 | Pal-KS(Ac4-β-Glc)TKS-OH (Palmitoyl-KS(Ac4‑β‑Glc″)TKS-OH; SMILES CCCCCCCCCCCCCCCC(=O)N[C@@H](CCCCN)C(=O)N[C@@H](CO[C@@H]1O[C@H](COC(C)=O)[C@@H](OC(C)=O)[C@H](OC(C)=O)[C@H]1OC(C)=O)C(=O)N[C@H](C(=O)N[C@@H](CCCCN)C(=O)N[C@@H](CO)C(=O)O)[C@@H](C)O; listed as Homo sapiens) [GP003-3] | 177.1% | 146.8% | 162.0* % | 138.8%
6 | Pal-KTT(Ac3-β-GlcNAc)KS-OH (Palmitoyl-KTT(Ac3‑β‑GlcNAc)KS-OH; SMILES CCCCCCCCCCCCCCCC(=O)N[C@@H](CCCCN)C(=O)N[C@H](C(=O)N[C@H](C(=O)N[C@@H](CCCCN)C(=O)N[C@@H](CO)C(=O)O)[C@@H](C)O[C@@H]1O[C@H](COC(C)=O)[C@@H](OC(C)=O)[C@H](OC(C)=O)[C@H]1NC(C)=O)[C@@H](C)O; listed as Homo sapiens) [GP001-11] | 114.3% | 94.75% | 111.2% | 113.8%
7 | Pal-KT(α-Man)TKS-OH (Palmitoyl-KT(αMan)TKS-OH; SMILES CCCCCCCCCCCCCCCC(=O)N[C@@H](CCCCN)C(=O)N[C@H](C(=O)N[C@H](C(=O)N[C@@H](CCCCN)C(=O)N[C@@H](CO)C(=O)O)[C@@H](C)O)[C@@H](C)O[C@H]1O[C@H](CO)[C@@H](O)[C@H](O)[C@@H]1O; listed as Homo sapiens) [GP003-2] | 121.0% | 160.4% | 165.0* % | 110.3%
